Data published in the supplement of paper PMC10307832.

Experiments:
Experiment in all cases: relative viability (nuclei count vs DMSO), 5 days (fraction); higher = more cells survive
Bortezomib + Palbociclib = compound: CC(C)C[C@H](NC(=O)[C@H](Cc1ccccc1)NC(=O)c1cnccn1)B(O)O [Bortezomib] + CC(=O)c1c(C)c2cnc(Nc3ccc(N4CCNCC4)cn3)nc2n(C2CCCC2)c1=O [Palbociclib] (partner 0.5 µM)
Procedure, shortened: (§1)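 One day after seeding in 1536-well plates, lung cancer cell lines were dosed by pin tool. Dosing was either single-drug or a fixed anchor-drug dose plus five library-drug doses (not always all listed) in √10 steps. After 5 days, nuclei were stained in one fix-and-stain step and counted on 4× images, and relative viability is the nuclei count of treated wells over that of vehicle wells, given as the median of duplicate plates.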

Bortezomib + Pictilisib = compound: CC(C)C[C@H](NC(=O)[C@H](Cc1ccccc1)NC(=O)c1cnccn1)B(O)O [Bortezomib] + CS(=O)(=O)N1CCN(Cc2cc3nc(-c4cccc5[nH]ncc45)nc(N4CCOCC4)c3s2)CC1 [Pictilisib] (partner 1 µM)
Procedure, shortened: as §1

Obatoclax + Alpelisib = compound: COC1=CC(c2cc3ccccc3[nH]2)=N/C1=C\c1[nH]c(C)cc1C [Obatoclax] + Cc1nc(NC(=O)N2CCC[C@H]2C(N)=O)sc1-c1ccnc(C(C)(C)C(F)(F)F)c1 [Alpelisib] (partner 2 µM)
Procedure, shortened: as §1

Obatoclax + Dasatinib = compound: COC1=CC(c2cc3ccccc3[nH]2)=N/C1=C\c1[nH]c(C)cc1C [Obatoclax] + Cc1nc(Nc2ncc(C(=O)Nc3c(C)cccc3Cl)s2)cc(N2CCN(CCO)CC2)n1 [Dasatinib] (partner 0.075 µM)
Procedure, shortened: as §1

Cell Line	relative viability (Bortezomib + Palbociclib; first compound 0.0002 µM)	relative viability (Bortezomib + Palbociclib; first compound 0.000632 µM)	relative viability (Bortezomib + Palbociclib; first compound 0.002 µM)	relative viability (Bortezomib + Palbociclib; first compound 0.006325 µM)	relative viability (Bortezomib + Palbociclib; first compound 0.02 µM)	relative viability (Bortezomib + Pictilisib; first compound 0.0002 µM)	relative viability (Bortezomib + Pictilisib; first compound 0.000632 µM)	relative viability (Bortezomib + Pictilisib; first compound 0.002 µM)	relative viability (Bortezomib + Pictilisib; first compound 0.006325 µM)	relative viability (Bortezomib + Pictilisib; first compound 0.02 µM)	relative viability (Obatoclax + Alpelisib; first compound 0.01 µM)	relative viability (Obatoclax + Alpelisib; first compound 0.03162 µM)	relative viability (Obatoclax + Alpelisib; first compound 0.1 µM)	relative viability (Obatoclax + Alpelisib; first compound 0.3162 µM)	relative viability (Obatoclax + Alpelisib; first compound 1 µM)	relative viability (Obatoclax + Dasatinib; first compound 0.01 µM)	relative viability (Obatoclax + Dasatinib; first compound 0.03162 µM)	relative viability (Obatoclax + Dasatinib; first compound 0.1 µM)	relative viability (Obatoclax + Dasatinib; first compound 0.3162 µM)	relative viability (Obatoclax + Dasatinib; first compound 1 µM)
NCI-H2023	0.303	0.345	0.332	0.0803	0.0773	0.235	0.215	0.286	0.162	0.0837	0.603	0.667	0.578	0.605	0.334	0.518	0.548	0.53	0.412	0.194
EBC-1						0.415	0.408	0.177	0.0912	0.0987	0.82	0.92	0.902	0.435	0.251					
NCI-H1666	0.62	0.699	0.608	0.569	0.472	0.451	0.518	0.41	0.198	0.168	0.93	0.903	0.881	0.255	0.223	0.819	0.809	0.727	0.496	0.418
NCI-H1975	0.663	0.517	0.138	0.1	0.106	0.271	0.22	0.173	0.105	0.115	0.629	0.666	0.663	0.476	0.182	0.439	0.389		0.351	0.153
NCI-H1793	0.336		0.375	0.205	0.143	0.282	0.305	0.297	0.269	0.18	0.702	0.629	0.885	0.678	0.795	0.404	0.405	0.321	0.395	0.418
NCI-H1355	0.394	0.4	0.398	0.24	0.138	0.376	0.396	0.497	0.202	0.136	0.866	0.905	0.795	0.681	0.658	0.836	0.675	0.538	0.68	0.535
SW 900	0.504	0.37	0.203	0.2	0.195											0.637	0.627	0.543	0.206	0.153
A549						0.507	0.531	0.468	0.049	0.0452	0.76	0.876	0.748	0.298	0.0816					
NCI-H2170	0.376	0.394	0.402	0.221	0.125	0.29	0.238	0.329	0.294	0.202	0.777	0.749	0.825	0.724	0.683	0.626	0.617	0.528	0.529	0.677
EKVX	0.361	0.401	0.28	0.171	0.079	0.429	0.426	0.463	0.33	0.0746	0.941	0.9	1.02	0.853	0.891	0.567	0.491	0.539	0.594	0.522
RERF-LC-KJ	1.18	1.03	1.05	0.224	0.19	0.573	0.528	0.523	0.171	0.203	0.754	0.811	0.805	0.803	0.775	0.796	0.894	0.701	0.745	0.513
NCI-H1755	0.426	0.438	0.452	0.263	0.248	0.441	0.322	0.43	0.171	0.137	0.871	0.906	0.871	0.871	0.889	0.425	0.402	0.335	0.44	0.397
NCI-H661	0.4	0.409	0.434	0.284	0.203	0.355	0.328	0.435	0.335	0.225	0.643	0.507	0.261	0.458	0.84	0.875	0.846	0.427	0.762	0.4
LOU-NH91	0.512	0.523	0.383	0.32	0.302	0.509	0.479	0.395	0.339	0.317	0.741	0.651	0.66	0.643	0.636	0.557	0.511	0.379	0.486	0.51
LXF-289	0.573	0.58	0.633	0.102	0.0908	0.829	0.81	0.717	0.07	0.0457	1.01	0.944	1.04	1.04	0.963	0.23	0.23	0.0916	0.221	0.154
HCC-44	1.02	1.02	0.943	0.759	0.278	0.581	0.575	0.554	0.464	0.133	0.84	0.706	0.801	0.607	0.21					
HARA	0.185	0.253	0.288	0.166	0.152	0.479	0.529	0.481	0.0462	0.0659	0.942	0.529	0.916	0.802	0.78	0.226	0.233	0.335	0.358	0.255
201T	0.339	0.367	0.37	0.33	0.218	0.677	0.707	0.698	0.684	0.541	1	0.983	1.02	1.04	1.08	0.599	0.412	0.588	0.569	0.6
